We go through twelve molecules from patent US9994547B2, “Heteroarylamide inhibitors of TBK1” (Takeda Pharmaceutical Company Limited, priority 2014, dated 2018).

The assay addresses Full length human TBK1 (Homo sapiens (Human), UniProt Q9UHD2). In words: Inhibition of TBK1 Enzyme (Example A). To be noted: -log(IC50), IC50 molar; 3 nM TBK1, 25 μM ATP, 60 min RT. Type of assay: biochemical. As for the experimental part:
Full length human TBK1 with an N-terminal His-tag was cloned into the pFastBacl vector and was transfected into Sf9 cells. 72 hours later the virus was harvested and amplified through two additional rounds of infections. Then 400 mL of the resulting virus stock was used to infect 10 L of Sf9 cells at a density of 2×10^6 cells/mL. Cell pellets were harvested 48 hours post infection and were lysed by freeze-thaw, homogenization and sonication in binding buffer (25 mM Tris pH7.6, 1 M NaCl, 10 mM imidazole, 0.5 mM TCEP) plus 0.1% Triton X-100 and complete protease inhibitor cocktail. The lysate was spun and the supernatant was purified with a HisTrap FF crude and a Superdex 200 pg column.
TBK1 inhibition is determined using a 384 well plate format in buffer containing 20 mM Hepes, pH 7.4, 10 mM MgCl2, 1 mM EDTA, 0.01% Brij-L23, 1 mM DTT. Each test compound is prepared in DMSO using 2.5-fold serial dilutions for 11 data points, which are added to the buffer so that each dilution contains 1% DMSO. To each well is added 2 μL of 1 μM 5FAM-DRHDSGLDSMKDE-NH2 (in buffer), 2 μL of diluted test compound (1% DMSO in buffer), and 5 μL of 3 nM TBK1 and 25 μM ATP (in buffer). The reaction mixture is incubated at RT for 60 min, and quenched by adding 20 mM Hepes, pH 7.4, 10 mM MgCl2, 1 mM EDTA, 0.01% Brij-L23, 1 mM DTT+25 mM EDTA. To quantify the fluorescent-labeled substrate and product following reaction, the test plate is loaded on a Caliper LC-3000, which measures percent of conversion by microfluidic-based separation. Corresponding IC50 values are calculated by non-linear curve fitting of the compound concentrations and percent of inhibition to the standard IC50 equation and reported as pIC50, i.e., −log(IC50), where IC50 is the molar concentration.

Full length human TBK1, sequence (Q9UHD2 whole entry): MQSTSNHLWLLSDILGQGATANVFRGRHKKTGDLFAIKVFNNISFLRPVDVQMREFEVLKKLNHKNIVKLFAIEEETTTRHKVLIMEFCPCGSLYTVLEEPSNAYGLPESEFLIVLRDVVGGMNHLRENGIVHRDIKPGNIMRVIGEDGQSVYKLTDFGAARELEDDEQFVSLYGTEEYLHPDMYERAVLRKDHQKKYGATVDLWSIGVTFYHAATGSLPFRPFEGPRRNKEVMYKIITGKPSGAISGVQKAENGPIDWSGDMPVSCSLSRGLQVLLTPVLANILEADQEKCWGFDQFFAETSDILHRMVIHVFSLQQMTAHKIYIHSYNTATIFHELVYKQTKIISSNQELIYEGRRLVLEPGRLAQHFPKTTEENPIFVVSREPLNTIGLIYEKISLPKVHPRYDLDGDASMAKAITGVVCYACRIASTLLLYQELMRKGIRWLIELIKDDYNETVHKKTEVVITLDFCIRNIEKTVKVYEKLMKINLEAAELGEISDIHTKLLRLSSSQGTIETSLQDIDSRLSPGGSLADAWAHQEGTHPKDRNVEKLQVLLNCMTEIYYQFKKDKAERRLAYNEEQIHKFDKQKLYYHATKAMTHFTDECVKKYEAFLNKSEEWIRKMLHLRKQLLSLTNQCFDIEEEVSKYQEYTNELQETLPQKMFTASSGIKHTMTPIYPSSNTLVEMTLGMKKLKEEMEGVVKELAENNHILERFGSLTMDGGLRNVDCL

In the case of `CCC(Nc1cc(-c2cnc(NC(=O)C3CC3)cn2)cnc1C#N)C(=O)N(C)C1CC1` (stereo not drawn) [Example 36, N-(5-(6-cyano-5-((1-(cyclopropyl(methyl)amino)-1-oxobutan-2-yl)amino)pyridin-3-yl)pyrazin-2-yl)cyclopropanecarboxamide], the “TBK1 Inhibition (pIC50)” value was 7.3.

As for `C[C@H](Nc1cc(-c2cnc(NC(=O)C3CC3)cn2)cnc1C#N)C(=O)NCC(C)(F)F` [Example 117, (S)-N-(5-(6-cyano-5-((1-((2,2-difluoropropyl)amino)-1-oxopropan-2-yl)amino)pyridin-3-yl)pyrazin-2-yl)cyclopropanecarboxamide], the “TBK1 Inhibition (pIC50)” value is recorded as 7.0.

With `CN(C)C(=O)CNc1cc(-c2cnc(NC(=O)C3CC3)cn2)cnc1C#N` [Example 122, N-(5-(6-cyano-5-((2-(dimethylamino)-2-oxoethyl)amino)pyridin-3-yl)pyrazin-2-yl)cyclopropanecarboxamide], the “TBK1 Inhibition (pIC50)” value came out at 7.0.

Regarding `C[C@@H](O)[C@H](Nc1cc(-c2cnc(NC(=O)C3CC3)cn2)cnc1C#N)C(=O)N(C)C` [Example 32, N-(5-(6-cyano-5-(((2S,3R)-1-(dimethylamino)-3-hydroxy-1-oxobutan-2-yl)amino)pyridin-3-yl)pyrazin-2-yl)cyclopropanecarboxamide], the “TBK1 Inhibition (pIC50)” value is listed as 6.8.

With `N#Cc1ncc(-c2cnc(NC(=O)C3CC3)cn2)cc1NCC(=O)N1CC2(COC2)C1` [Example 104, N-(5-(6-cyano-5-((2-oxo-2-(2-oxa-6-azaspiro[3.3]heptan-6-yl)ethyl)amino)pyridin-3-yl)pyrazin-2-yl)cyclopropanecarboxamide], the “TBK1 Inhibition (pIC50)” value is listed as 5.4.

In the case of `CN(C)C(=O)C(CCO)Nc1cc(-c2cnc(NC(=O)C3CC3)cn2)ccc1C#N` (stereo not drawn) [Example 28, N-(5-(4-cyano-3-((1-(dimethylamino)-4-hydroxy-1-oxobutan-2-yl)amino)phenyl)pyrazin-2-yl)cyclopropanecarboxamide], the “TBK1 Inhibition (pIC50)” value stood at 6.9.

For `CN(C)C(=O)C(CCO)Nc1cc(-c2cnc(NC(=O)C3CC3)cn2)cnc1C#N` (stereo not drawn) [Example 115, N-(5-(6-cyano-5-((1-(dimethylamino)-4-hydroxy-1-oxobutan-2-yl)amino)pyridin-3-yl)pyrazin-2-yl)cyclopropanecarboxamide], the “TBK1 Inhibition (pIC50)” value is on record as 6.9.

On to `N#Cc1ncc(-c2cnc(NC(=O)C3CC3)cn2)cc1NCC(=O)N1CCC1C(F)(F)F` (stereo not drawn) [Example 94, N-(5-(6-cyano-5-((2-oxo-2-(2-(trifluoromethyl)azetidin-1-yl)ethyl)amino)pyridin-3-yl)pyrazin-2-yl)cyclopropanecarboxamide], for which the “TBK1 Inhibition (pIC50)” value is 7.3.

For the molecule `COCC(Nc1cc(-c2cnc(NC(=O)C3CC3)cn2)cnc1C#N)C(=O)N(C)C` (stereo not drawn) [Example 42, N-(5-(6-cyano-5-((1-(dimethylamino)-3-methoxy-1-oxopropan-2-yl)amino)pyridin-3-yl)pyrazin-2-yl)cyclopropanecarboxamide], the “TBK1 Inhibition (pIC50)” value is 6.8.

With `CC1CC1C(=O)Nc1cnc(-c2cnc(C#N)c(N[C@@H](C)C(=O)N(C)CC(F)F)c2)cn1` (stereo partly drawn) [Example 86, N-(5-(6-cyano-5-(((S)-1-((2,2-difluoroethyl)(methyl)amino)-1-oxopropan-2-yl)amino)pyridin-3-yl)pyrazin-2-yl)-2-methylcyclopropanecarboxamide], the “TBK1 Inhibition (pIC50)” value came out at 8.4.

`CC(C#N)N(C)C(=O)[C@H](C)Nc1cc(-c2cnc(NC(=O)C3CC3)cn2)cnc1C#N` (stereo partly drawn) [Example 69, N-(5-(6-cyano-5-(((2S)-1-((1-cyanoethyl)(methyl)amino)-1-oxopropan-2-yl)amino)pyridin-3-yl)pyrazin-2-yl)cyclopropanecarboxamide]: the “TBK1 Inhibition (pIC50)” value was 7.7.

Turning to `CN(C)C(=O)[C@H](CC(F)F)Nc1cc(-c2cnc(NC(=O)C3CC3)cn2)ccc1C#N` [Example 34, (S)-N-(5-(4-cyano-3-((1-(dimethylamino)-4,4-difluoro-1-oxobutan-2-yl)amino)phenyl)pyrazin-2-yl)cyclopropanecarboxamide], the “TBK1 Inhibition (pIC50)” value is given as 8.2.
